How the values were obtained:
KB = assay: Cancer cell growth inhibition (CellTiter-Glo), KB; format: cell-based, Human; settings: Homo sapiens, Oral Cancer, 72 h treatment
Experimental: (§1) Cell culture-based assays were used to evaluate the ability of compounds of the invention to inhibit cancer cell growth.
(§2) Cells were obtained from the American Type Culture Collection (ATCC). Cells were cultured at 37° C. with 5% CO2 in the appropriate growth medium (see table below), and harvested respectively during the logarithmic growth period and counted with hemocytometer. The cell viability was examined by trypan blue exclusion. Cell concentrations were adjusted to 5.56×10^4 cells/ml with respective medium.
(§3) Stock solutions of test compounds and positive drugs Doxorubicin (Zhejiang, Haizheng, China), Cisplatin (Nanjing Zhiyao, China) and Mitomycin (Zhejiang, Haizheng, China) were prepared in dimethyl sulphoxide (DMSO) or PBS at 20 mM.
(§4) In order to determine the IC50 for each compound, experiments were carried out in 96-well plates and the cell lines seeded at a density of 5,000 cells/well. […] All treatments were performed in triplicate. 10 μl of drug solution was added to each well and incubated for 72 hours. At the end of the incubation, 100 μl of the CellTiter-Glo Reagent were added to each well and the contents were mixed for 2 munites on an orbital shaker to induce cell lysis. The plate was incubated at room temperature for 10 minutes to stabilize luminiscent signal, and luminiscent was recorded. […] In order to calculate IC50 values, dose-responsive curves were fitted using nonlinear regression model with a sigmoidal dose response.

PANC-1 = assay: Cancer cell growth inhibition (CellTiter-Glo), PANC-1; format: cell-based, Human; settings: Homo sapiens; Pancreatic Cancer, PANC-1, 72 h treatment
Experimental: as §1, §2, §3, §4

BT474 = assay: Cancer cell growth inhibition (CellTiter-Glo), BT474; format: cell-based; settings: Homo sapiens, BT-474; Breast Cancer, BT474, 72 h treatment
Experimental: as §1, §2, §3, §4

786-O = assay: Cancer cell growth inhibition (CellTiter-Glo), 786-O; format: cell-based, Human; settings: Homo sapiens, 786-0, Kidney Cancer, 72 h treatment
Experimental: as §1, §2, §3, §4

SK-BR-3 = assay: Cancer cell growth inhibition (CellTiter-Glo), SK-BR-3; format: cell-based, Human; settings: Homo sapiens; Breast Cancer, SK-BR-3, 72 h treatment
Experimental: as §1, §2, §3, §4

SK-MES-1 = assay: Cancer cell growth inhibition (CellTiter-Glo), SK-MES-1; format: cell-based, Human; settings: Homo sapiens; Lung Cancer, SK-MES-1, 72 h treatment
Experimental: as §1, §2, §3, §4

CNE2 = assay: Cancer cell growth inhibition (CellTiter-Glo), CNE2; format: cell-based, Human; settings: Homo sapiens, CNE-2; Nasopharyngeal, CNE2, 72 h treatment
Experimental: as §1, §2, §3, §4

NCI-N87 = assay: Cancer cell growth inhibition (CellTiter-Glo), NCI-N87; format: cell-based, Human; settings: Homo sapiens; Gastric Cancer, NCI-N87, 72 h treatment
Experimental: as §1, §2, §3, §4

LoVo = assay: Cancer cell growth inhibition (CellTiter-Glo), LoVo; format: cell-based, Human; settings: Homo sapiens, Colorectal Cancer, 72 h treatment
Experimental: as §1, §2, §3, §4

143b = assay: Cancer cell growth inhibition (CellTiter-Glo), 143b; format: cell-based; settings: Homo sapiens, Osteosarcoma, 72 h treatment
Experimental: as §1, §2, §3, §4

HT-29 = assay: Cancer cell growth inhibition (CellTiter-Glo), HT-29; format: cell-based, Human; settings: Homo sapiens; Colorectal Cancer, HT-29, 72 h treatment
Experimental: as §1, §2, §3, §4

K562 = assay: Cancer cell growth inhibition (CellTiter-Glo), K562; format: cell-based, Human; settings: Homo sapiens; CML, K562, 72 h treatment
Experimental: as §1, §2, §3, §4

U-87MG = assay: Cancer cell growth inhibition (CellTiter-Glo), U-87MG; format: cell-based, Human; settings: Homo sapiens, Glioblastoma, 72 h treatment
Experimental: as §1, §2, §3, §4

HepG2 = assay: Cancer cell growth inhibition (CellTiter-Glo), HepG2; format: cell-based; settings: Homo sapiens; Liver Cancer, HepG2, 72 h treatment
Experimental: as §1, §2, §3, §4

A375 = assay: Cancer cell growth inhibition (CellTiter-Glo), A375; format: cell-based, Human; settings: Homo sapiens, A-375; Melanoma, A375, 72 h treatment
Experimental: as §1, §2, §3, §4

SK-OV-3 = assay: Cancer cell growth inhibition (CellTiter-Glo), SK-OV-3; format: cell-based, Human; settings: Homo sapiens; Ovarian Cancer, SK-OV-3, 72 h treatment
Experimental: as §1, §2, §3, §4

DU145 = assay: Cancer cell growth inhibition (CellTiter-Glo), DU145; format: cell-based, Human; settings: Homo sapiens, DU-145; Prostate Cancer, DU145, 72 h treatment
Experimental: as §1, §2, §3, §4

HCT-116 = assay: Cancer cell growth inhibition (CellTiter-Glo), HCT-116; format: cell-based; settings: Homo sapiens; Colorectal Cancer, HCT-116, 72 h treatment
Experimental: as §1, §2, §3, §4

LNCaP = assay: Cancer cell growth inhibition (CellTiter-Glo), LNCaP; format: cell-based, Human; settings: Homo sapiens, Prostate Cancer, 72 h treatment
Experimental: as §1, §2, §3, §4

MDA-MB-231 = assay: Cancer cell growth inhibition (CellTiter-Glo), MDA-MB-231; format: cell-based; settings: Homo sapiens; Breast Cancer, MDA-MB-231, 72 h treatment
Experimental: as §1, §2, §3, §4

NCI-H1703 = assay: Cancer cell growth inhibition (CellTiter-Glo), NCI-H1703; format: cell-based, Human; settings: Homo sapiens; Lung Cancer, NCI-H1703, 72 h treatment
Experimental: as §1, §2, §3, §4

PC-3 = assay: Cancer cell growth inhibition (CellTiter-Glo), PC-3; format: cell-based, Human; settings: Homo sapiens; Prostate Cancer, PC-3, 72 h treatment
Experimental: as §1, §2, §3, §4

Structure (SMILES)	IC50 (KB)	IC50 (PANC-1)	IC50 (BT474)	IC50 (786-O)	IC50 (SK-BR-3)	IC50 (SK-MES-1)	IC50 (CNE2)	IC50 (NCI-N87)	IC50 (LoVo)	IC50 (143b)	IC50 (HT-29)	IC50 (K562)	IC50 (U-87MG)	IC50 (HepG2)	IC50 (A375)	IC50 (SK-OV-3)	IC50 (DU145)	IC50 (HCT-116)	IC50 (LNCaP)	IC50 (MDA-MB-231)	further results
O=C(CCCCCNC(=O)c1[nH]c(-c2ccc(O)cc2)cc1-c1ccccc1)NO [Example 2, N-(6-(hydroxyamino)-6-oxohexyl)-5-(4-hydroxyphenyl)-3-phenyl-1H-pyrrole-2-carboxamide]	2.23 µM	27.7 µM	3.49 µM	3.51 µM	3.37 µM	4.8 µM	10.1 µM	1.24 µM	2.69 µM	5.38 µM	4.04 µM	1.61 µM	11.8 µM	0.99 µM	4.07 µM	6.88 µM	1.86 µM	1.75 µM	1.77 µM	9.03 µM	IC50 (NCI-H1703): 2.06 µM; IC50 (PC-3): 26.9 µM
O=C(CCCCCNC(=O)c1[nH]c(-c2ccccc2)cc1-c1ccc(O)cc1)NO [Example 1, N-(6-(hydroxyamino)-6-oxohexyl)-3-(4-hydroxyphenyl)-5-phenyl-1H-pyrrole-2-carboxamide]	0.95 µM	6.04 µM	2.71 µM	3.28 µM	3.49 µM	2.88 µM	2.77 µM	1 µM	1.4 µM	1.71 µM	1.42 µM	1.02 µM	5.67 µM	1.1 µM	2.05 µM	3.16 µM	0.81 µM	0.95 µM	1.11 µM	4.33 µM	IC50 (NCI-H1703): 3.26 µM; IC50 (PC-3): 17.9 µM
O=C(CCCCCNC(=O)c1[nH]c(-c2ccc(O)cc2)cc1-c1ccsc1)NO [Example 6, N-(5-(hydroxycarbamoyl)pentyl)-5-(4-hydroxyphenyl)-3-(3-thienyl)-1H-pyrrole-2-carboxamide]	1.45 µM	22.2 µM	1.02 µM	2.7 µM	1.36 µM	3.7 µM	7.39 µM	0.48 µM	1.24 µM	2.72 µM	3.64 µM	1.35 µM	8.98 µM	0.48 µM	3.2 µM	3.15 µM	1.05 µM	0.78 µM	0.8 µM	7.89 µM	IC50 (NCI-H1703): 1.83 µM; IC50 (PC-3): 26.8 µM
O=C(CCCCCNC(=O)c1[nH]c(-c2ccc(O)cc2)cc1-c1ccoc1)NO [Example 5, 3-(3-furyl)-N-(5-(hydroxycarbamoyl)pentyl)-5-(4-hydroxy-phenyl)-1H-pyrrole-2-carboxamide]	0.87 µM	29.2 µM	0.66 µM	3.14 µM	0.43 µM	3.62 µM	10.1 µM	0.16 µM	1.08 µM	2.91 µM	3.45 µM	1.75 µM	8.72 µM	0.28 µM	3.64 µM	1.56 µM	0.72 µM	0.45 µM	0.59 µM	8.02 µM	IC50 (NCI-H1703): 1.64 µM; IC50 (PC-3): 25.8 µM

— patent publication US20150038545A1, “HYDROXYPHENYL PYRROLE COMPOUNDS CONTAINING AN HYDROXAMIC ACID AS HDAC INHIBITORS AND MEDICINAL APPLICATIONS THEREOF” (UNIVERSIDAD DEL PAÍS VASCO, priority 2011, published 2015)
